# Data reported in patent US12077503B2, “Substituted cyclic amides and their use as herbicides” (FMC CORPORATION, priority 2015, dated 2024).
# Like-named read-outs stand apart in the source and are kept apart here.
# Legend:
# [1] = tested on: giant foxtail (Setaria faberi); experiment: Test G Pre-Emergence Protocol; format: in vivo; conditions: Setaria faberi, pre-emergence, 312 h, evaluated after 13 days; for pest or weed control at 15.625 g/ha: 15.625 g ai/ha; for pest or weed control at 15.625 g/ha / pest or weed control at 250 g/ha: read-out: Foxtail, Giant damage rating (100=total damage to plant; 0=no damage to plant); for pest or weed control at 62.5 g/ha: 62.5 g ai/ha, 100=total damage to plant, 0=no damage to plant, read-out: plant damage rating, Foxtail, Giant; for pest or weed control at 250 g/ha: 250 g ai/ha
# Experimental: (§1) Seeds of corn (Zea mays), giant foxtail (Setaria faberi), barnyardgrass (Echinochloa crus-galli), ivy-leaved morning glory (Ipomoea hederacea), redroot pigweed (Amaranthus retroflexus) and velvetleaf (Abutilon theophrasti) were sown in standard soil in pots. After cultivation for one day under controlled conditions in a glasshouse (at 24/16° C., day/night; 14 hours light; 65% humidity), the plants were sprayed with an aqueous spray solution derived from the formulation of the technical active ingredient in acetone/water (50:50) solution containing 0.5% Tween 20 (polyoxyethylene sorbitan monolaurate, CAS RN 9005-64-5) to give a final dose of 15.625, 62.5 or 250 g/ha of test compound.
# (§2) The test plants were then grown on under controlled conditions in a glasshouse (at 24/16° C., day/night; 14 hours light; 65% humidity) and watered twice daily. After 13 days the test was evaluated (100=total damage to plant; 0=no damage to plant). A dash (-) means no test result.
# [2] = tested on: velvetleaf (Abutilon theophrasti); experiment: Test G Pre-Emergence Protocol; format: in vivo; conditions: Abutilon theophrasti, pre-emergence, 312 h, evaluated after 13 days; for pest or weed control at 15.625 g/ha: 15.625 g ai/ha; for pest or weed control at 15.625 g/ha / pest or weed control at 250 g/ha: read-out: Velvetleaf damage rating (100=total damage to plant; 0=no damage to plant); for pest or weed control at 62.5 g/ha: 62.5 g ai/ha, 100=total damage to plant, 0=no damage to plant, read-out: plant damage rating, Velvetleaf; for pest or weed control at 250 g/ha: 250 g ai/ha
# Experimental: as §1, §2
# [3] = tested on: redroot pigweed (Amaranthus retroflexus); experiment: Test G Pre-Emergence Protocol; format: in vivo; conditions: Amaranthus retroflexus, pre-emergence, 312 h, evaluated after 13 days; for pest or weed control at 15.625 g/ha: 15.625 g ai/ha; for pest or weed control at 15.625 g/ha / pest or weed control at 250 g/ha: read-out: Pigweed, Redroot damage rating (100=total damage to plant; 0=no damage to plant); for pest or weed control at 62.5 g/ha: 62.5 g ai/ha, 100=total damage to plant, 0=no damage to plant, read-out: plant damage rating, Pigweed, Redroot; for pest or weed control at 250 g/ha: 250 g ai/ha
# Experimental: as §1, §2
# [4] = tested on: barnyardgrass (Echinochloa crus-galli); experiment: Test G Pre-Emergence Protocol; format: in vivo; conditions: Echinochloa crus-galli, pre-emergence, 312 h, evaluated after 13 days; for pest or weed control at 15.625 g/ha: 15.625 g ai/ha, read-out: Barnyard grass damage rating (100=total damage to plant; 0=no damage to plant); for pest or weed control at 62.5 g/ha: 62.5 g ai/ha, 100=total damage to plant, 0=no damage to plant, read-out: plant damage rating, Barnyardgrass; for pest or weed control at 250 g/ha: 250 g ai/ha, read-out: Barnyardgrass damage rating (100=total damage to plant; 0=no damage to plant)
# Experimental: as §1, §2
# [5] = tested on: ivy-leaved morning glory (Ipomoea hederacea); experiment: Test G Pre-Emergence Protocol; format: in vivo; conditions: Ipomoea, pre-emergence, 312 h, evaluated after 13 days; for pest or weed control at 62.5 g/ha: 62.5 g ai/ha, 100=total damage to plant, 0=no damage to plant, read-out: plant damage rating, Morningglory, Ivy-leaved; for pest or weed control at 250 g/ha: 250 g ai/ha, read-out: Morningglory, Ivy-leaved damage rating (100=total damage to plant; 0=no damage to plant); for pest or weed control at 15.625 g/ha: 15.625 g ai/ha, read-out: Morning-glory, Ivy-leaved damage rating (100=total damage to plant; 0=no damage to plant)
# Experimental: as §1, §2
# [6] = tested on: corn (Zea mays); experiment: Test G Pre-Emergence Protocol; format: in vivo; conditions: Zea mays, pre-emergence, 312 h, evaluated after 13 days; for plant injury at 15.625 g/ha: 15.625 g ai/ha; for plant injury at 15.625 g/ha / plant injury at 250 g/ha: read-out: Corn damage rating (100=total damage to plant; 0=no damage to plant); for plant injury at 62.5 g/ha: 62.5 g ai/ha, 100=total damage to plant, 0=no damage to plant, read-out: plant damage rating, Corn; for plant injury at 250 g/ha: 250 g ai/ha
# Experimental: as §1, §2
# [7] = tested on: pigweed (Amaranthus retroflexus); experiment: Test A postemergence; format: in vivo; conditions: Amaranthus retroflexus, post-emergence, 240 h; for pest or weed control at 125 g/ha: 125 g ai/ha; for pest or weed control at 500 g/ha: 500 g ai/ha, visual injury, approx. 10 d
# How it was run: (§3)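 Greenhouse, ~10 d after spray; visual injury vs untreated controls, 0 = no effect, 100 = complete control. Preemergence: directed soil spray over planted seeds. Postemergence: plants 2–10 cm, 1–2 leaf stage. Loam/sand blend. Compound in non-phytotoxic solvent with surfactant.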
# [8] = tested on: ryegrass, Italian (Italian ryegrass, Lolium multiflorum); experiment: Test A postemergence; format: in vivo; conditions: Lolium multiflorum, post-emergence, 240 h, 125 g ai/ha, postemergence; visual injury after approximately 10 d; 0 to 100 scale (0 no effect, 100 complete control); read-out: Plant response rating, Ryegrass, Italian
# How it was run: as §3
# [9] = tested on: wheat (Triticum aestivum); experiment: Test A postemergence; format: in vivo; conditions: Triticum aestivum, post-emergence, 240 h; for plant injury at 125 g/ha: 125 g ai/ha; for plant injury at 500 g/ha: 500 g ai/ha, visual injury, approx. 10 d
# How it was run: as §3
# [10] = tested on: Galium (catchweed bedstraw, Galium aparine); experiment: Test A postemergence; format: in vivo; conditions: Galium, post-emergence, 240 h, 125 g ai/ha, postemergence; visual injury after approximately 10 d; 0 to 100 scale (0 no effect, 100 complete control); read-out: Plant response rating, Galium
# How it was run: as §3
# [11] = tested on: corn (Zea mays); experiment: Test A postemergence; format: in vivo; conditions: Zea mays, post-emergence, 240 h; for Corn plant response rating (crop injury, 0 = no effect, 100 = complete kill) at 125 g/ha / plant injury at 125 g/ha: 125 g ai/ha; for Corn plant response rating (crop injury, 0 = no effect, 100 = complete kill) at 125 g/ha: postemergence, visual injury after approximately 10 d; for Corn plant response rating (crop injury, 0 = no effect, 100 = complete kill) at 125 g/ha / Corn plant response rating (crop injury, 0 = no effect, 100 = complete kill) at 500 g/ha: 0 to 100 scale (0 no effect, 100 complete control); for plant injury at 125 g/ha / Corn plant response rating (crop injury, 0 = no effect, 100 = complete kill) at 500 g/ha: Postemergence; for plant injury at 125 g/ha: visual rating about 10 d after treatment, read-out: Corn plant response rating (0 to 100 scale); for Corn plant response rating (crop injury, 0 = no effect, 100 = complete kill) at 500 g/ha: 500 g ai/ha, visual injury, approx. 10 d
# How it was run: as §3
# [12] = postemergence, visual injury after approximately 10 d, 0 to 100 scale (0 no effect, 100 complete control), read-out: Plant response rating, Pigweed
# [13] = postemergence, visual injury after approximately 10 d, 0 to 100 scale (0 no effect, 100 complete control), read-out: Plant response rating, Wheat
# [14] = Postemergence, visual rating about 10 d after treatment, read-out: Pigweed plant response rating (0 to 100 scale)
# [15] = Postemergence, 0 to 100 scale (0 no effect, 100 complete control), read-out: Plant response rating, Pigweed
# [16] = Postemergence, visual rating about 10 d after treatment, read-out: Wheat plant response rating (0 to 100 scale)
# [17] = Postemergence, 0 to 100 scale (0 no effect, 100 complete control), read-out: Plant response rating, Wheat
SMILES,melting point,pest or weed control at 15.625 g/ha [1],pest or weed control at 62.5 g/ha [1],pest or weed control at 250 g/ha [1],pest or weed control at 15.625 g/ha [2],pest or weed control at 62.5 g/ha [2],pest or weed control at 250 g/ha [2],pest or weed control at 15.625 g/ha [3],pest or weed control at 62.5 g/ha [3],pest or weed control at 250 g/ha [3],pest or weed control at 15.625 g/ha [4],pest or weed control at 62.5 g/ha [4],pest or weed control at 250 g/ha [4],pest or weed control at 62.5 g/ha [5],pest or weed control at 250 g/ha [5],plant injury at 15.625 g/ha [6],plant injury at 62.5 g/ha [6],plant injury at 250 g/ha [6],also measured
CN1C[C@@H](c2ccc(C(F)(F)F)cc2)[C@H](C(=O)Nc2cnccc2C(F)(F)F)C1=O (racemic) [Compound 1401],–,40%,70%,90%,0%,30%,70%,0%,40%,90%,20%,30%,80%,0%,20%,0%,10%,20%,–
CN1C[C@H](c2cccc(C(C)(C)C#N)c2)[C@@H](C(=O)Nc2cccc(F)c2F)C1=O (racemic) [Compound 1497],–,0%,60%,80%,0%,0%,0%,0%,0%,0%,0%,30%,80%,0%,20%,0%,0%,10%,pest or weed control at 15.625 g/ha [5]: 0%
CN1C[C@@H](c2ccc(C(F)(F)F)cc2)[C@H](C(=O)Nc2ccnc(Cl)c2Cl)C1=O (racemic) [Compound 1503],–,0%,0%,30%,0%,0%,0%,0%,–,0%,0%,0%,20%,0%,0%,0%,0%,0%,–
CN1C[C@@H](c2ccc(C(F)(F)F)cc2)[C@H](C(=O)Nc2ncc(C(F)(F)F)s2)C1=O (racemic) [Compound 1504],–,0%,0%,0%,0%,0%,0%,0%,0%,0%,0%,0%,0%,0%,0%,0%,0%,0%,pest or weed control at 15.625 g/ha [5]: 0%
O=C1NCC(c2ccccc2)C1C(=O)Nc1cc(F)ccc1F (centres unmarked) [Compound 1359],147 to 149 °C,–,–,–,–,–,–,–,–,–,–,–,–,–,–,–,–,–,"pest or weed control at 125 g/ha [7, 14]: 0%; pest or weed control at 500 g/ha [7, 15]: 0%; plant injury at 125 g/ha [9, 16]: 0%; plant injury at 500 g/ha [9, 17]: 0%; plant injury at 125 g/ha [11]: 0%; Corn plant response rating (crop injury, 0 = no effect, 100 = complete kill) at 500 g/ha [11]: 0%"

# More lines, main results first:
melting point,SMILES,pest or weed control at 15.625 g/ha [1],pest or weed control at 62.5 g/ha [1],pest or weed control at 250 g/ha [1],pest or weed control at 15.625 g/ha [2],pest or weed control at 62.5 g/ha [2],pest or weed control at 250 g/ha [2],pest or weed control at 15.625 g/ha [3],pest or weed control at 62.5 g/ha [3],pest or weed control at 250 g/ha [3],pest or weed control at 15.625 g/ha [4],pest or weed control at 62.5 g/ha [4],pest or weed control at 250 g/ha [4],pest or weed control at 62.5 g/ha [5],pest or weed control at 250 g/ha [5],plant injury at 15.625 g/ha [6],plant injury at 62.5 g/ha [6],plant injury at 250 g/ha [6],also measured
227 to 231 °C,O=C1NC[C@H](c2cnc(C(F)(F)F)nc2)[C@H]1C(=O)Nc1ccccc1F [Compound 741],–,–,–,–,–,–,–,–,–,–,–,–,–,–,–,–,–,"pest or weed control at 125 g/ha [7, 12]: 0%; pest or weed control at 125 g/ha [8]: 0%; plant injury at 125 g/ha [9, 13]: 0%; pest or weed control at 125 g/ha [10]: 0%; Corn plant response rating (crop injury, 0 = no effect, 100 = complete kill) at 125 g/ha [11]: 0%"
146 to 150 °C,CN1CC(c2cccc(OC/C=C/Cl)c2)C(C(=O)Nc2cccc(F)c2F)C1=O (centres unmarked) [Compound 772],–,–,–,–,–,–,–,–,–,–,–,–,–,–,–,–,–,"pest or weed control at 125 g/ha [7, 12]: 0%; pest or weed control at 125 g/ha [8]: 0%; plant injury at 125 g/ha [9, 13]: 0%; pest or weed control at 125 g/ha [10]: 0%; Corn plant response rating (crop injury, 0 = no effect, 100 = complete kill) at 125 g/ha [11]: 0%"
221 to 223 °C,O=C1NCC(c2ccccc2)C1C(=O)Nc1ccc(C(F)(F)F)cc1 (centres unmarked) [Compound 1362],–,–,–,–,–,–,–,–,–,–,–,–,–,–,–,–,–,"pest or weed control at 125 g/ha [7, 14]: 0%; pest or weed control at 500 g/ha [7, 15]: 0%; plant injury at 125 g/ha [9, 16]: 0%; plant injury at 500 g/ha [9, 17]: 0%; plant injury at 125 g/ha [11]: 0%; Corn plant response rating (crop injury, 0 = no effect, 100 = complete kill) at 500 g/ha [11]: 0%"
